We go through six molecules from US8287893B2, “Bioactive agrichemical compositions and use thereof” (Sciessent LLC, priority 2007, dated 2012).

The subject of experiment [1] is Saccharomycetes Cerevisiae (Fleishmann's Bakers yeast). Description: Yeast growth suppression, turbidity of yeast suspension in growth medium. Also on record: key to turbidity T0 / turbidity T18 / change in turbidity T48 − T0 / turbidity T48 / turbidity T72 / turbidity T96 / change in turbidity T18 − T0 / change in turbidity T72 − T0 / change in turbidity T96 − T0: turbidity in NTU. The experiment is classed as cell-based. How it is done: Saccharomycetes Cerevisiae was selected as a test organism as it is generally accepted in the industry as an indicator or surrogate organism for a wide variety of fungi. In each of these experiments, the same general procedure was followed unless otherwise indicated.
Experimental Detail: A growth medium was prepared by adding 10 grams of nutrient medium (Difco Sabouraud dextrose broth from BD of Franklin Lakes, N.J., USA) to 300 ml of distilled water. Fleishmann's Bakers yeast was then added to the growth medium while mixing using a magnetic stirrer until a uniform dispersion was obtained having an initial turbidity of between about 50 and 100 NTU as measured using a HF Instruments DRT 100B Turbidity Meter. Once the appropriate dispersion was obtained, 20 ml aliquots were then dispensed, with continued mixing, into 40 ml borosilicate glass vials with Teflon lined caps (VWR International Cat. No. 15900-004). The system/component to be evaluated was then added to the vial and intimately shaken to ensure a good, substantially homogeneous mixture. The turbidity of each mixture was then determined and the vial transferred to an incubator at 30° C. Each vial was periodically removed from the incubator and the mixture in the vials assessed for turbidity: the specific timing for such evaluation was as set forth in the discussion of the experiments and the accompanying tables.
In each experiment, unless otherwise specified, a 2 ml aqueous solution containing the specified bioactive system or component thereof was added to the 20 ml yeast suspension and mixed thoroughly. Typically the surfactants were added separately in a concentrated solution in water; however, the volume added was negligible: a fraction of an ml. For convenience in understanding efficacy levels, the amounts or concentrations of the various components presented in each of the following tables and experiments are of the diluted material in the test vial: not of the concentrate added to the test vial. Furthermore, the concentrations presented are on the basis of a 20 ml total volume, not the actual 22+ ml volume. Multiplying each of the listed concentrations by 0.9 (or 0.95 with those compositions using 1 ml aqueous solutions) will provide a more accurate assessment of the concentrations of the various components evaluated, i.e., a 5 ppm silver concentration is actually closer to 4.5 ppm. Finally, for those vials to which no bioactive system or component thereof was added (the controls) or which only contained the surfactants, 2 ml of additional growth medium was added to ensure relative equivalent dilutions of the yeast.
In the tables below, the results are presented as the actual turbidity readings (NTU) with a sub-table presenting the change or delta in NTU values. Given the nature of the system, changes in turbidity are reflective of the relative performance/bioefficacy of the bioactive systems and their components.

For experiment [2], the system named is E. amylovora 153N. Briefly: Fire blight on Snow Drift crabapple trees (Example 287). The experiment is classed as in vivo. Conditions: for cankers, result in words / shoot blight incidence, result in words: day 63. How it is done:
A study of the bioefficacy of the various agrichemical compositions, including bioactive acid solutions and blends thereof with an antibiotic agrichemical, were evaluated to assess their bioefficacy against fire blight on crabapples. The study was conducted on 5 year old Snow Drift crabapple trees, with each of the compositions being applied to ten trees in two-subplots of five trees, four different times: at 100% bloom-day 1, a second application was made on day 4, a third on day 11 and a final treatment on day 19. The trees were inoculated with E. amylovora […] at a concentration of 4×10^6 cells per milliliter on day 1, following drying of the treatment, with the inoculation being repeated on day 13. Evaluation for fire blight was completed on 100 blossoms for each of the subplots on day 12, day 19 and day 27. Additionally, the incidence of shoot infection and the length of […] evaluated on day 63. The test compositions were prepared by forming solutions of the bioactive agents. Two different dilutions of the MI2 bioactive were evaluated; the first employing 94.46 ml/gallon (25 ml/l) of water (5 ppm of each metal) and the second 188.9 ml/gallon (50 ml/l) of water (10 ppm of each metal). […] Finally, copper hydroxide was diluted at a rate of 1 lb/gallon (119.8 g/l). Each of the compositions and blends were spray applied at a rate of 50 gallons (189.3 l) pre acre. The results are presented as the mean of the counts.

Setting [3] is: Table 12, surfactant ~0.05 wt % neat, Metal ppm 0.
Setting [4] is: Table 12, surfactants ~0.05 wt %, Metal ppm 2.5 each of Cu, Ag, Zn, ~0.2% citric acid.
[5] abbreviates: Table 12, surfactants ~0.05 wt %, Metal ppm 5 each of Cu, Ag, Zn, ~0.4% citric acid.

Like-named read-outs stand apart in the source and are kept apart here.

Take copper citrate [Example 13]: in experiment [1], the “Change in Turbidity from T0 (delta NTU) T 96 Hours” value (“Change … (delta NTU) T 96 Hours” below) was 1054.4 NTU, the “Change in Turbidity from T0 (delta NTU) T 18 hours” value (“Change … (delta NTU) T 18 hours” for short) is 894.4 NTU, the “Change in Turbidity from T0 (delta NTU) T 24 hours” value (from here on “Change … (delta NTU) T 24 hours”) is on record as 975.4 NTU and the “Change in Turbidity from T0 (delta NTU) Time 1 Hr” value (from here on “Change … (delta NTU) Time 1 Hr”) came to 22.4 NTU.
For the molecule `O=C([O-])CC(O)(CC(=O)[O-])C(=O)[O-].[Ag+].[Ag+].[Ag+]` [Example 1, silver citrate], the “Change … (delta NTU) Time 1 Hr” value in experiment [1] (Table 1A, 1 hour) was determined as 15.1 NTU. The “Change … (delta NTU) T 18 hours” value in experiment [1] (Table 1A, 18 hours) turned out to be 845.5 NTU. Also, the “Change … (delta NTU) T 24 hours” value in experiment [1] (Table 1A, 24 hours) is reported as 887.5 NTU. The “Change … (delta NTU) T 96 Hours” value in experiment [1] (Table 1A, 96 hours) is listed as 950.5 NTU.
With `O=C([O-])CC(O)(CC(=O)[O-])C(=O)[O-].O=C([O-])CC(O)(CC(=O)[O-])C(=O)[O-].[Zn+2].[Zn+2].[Zn+2]` [Example 7, zinc citrate], in experiment [1], the “Change … (delta NTU) T 96 Hours” value was determined as 1007.2 NTU, the “Change … (delta NTU) T 18 hours” value worked out at 948.2 NTU, the “Change … (delta NTU) T 24 hours” value is recorded as 949.2 NTU and the “Change … (delta NTU) Time 1 Hr” value came out at 20.7 NTU.
On to `[H]/N=C(/N)N[C@H]1[C@H](O)[C@@H](O)[C@H](O[C@@H]2O[C@@H](C)[C@](O)(C=O)[C@H]2O[C@@H]2O[C@@H](CO)[C@H](O)[C@@H](O)[C@@H]2NC)[C@@H](N/C(N)=N\[H])[C@@H]1O` [streptomycin], for which, in experiment [2], the “cankers, result in words” value is listed as “appeared to prevent canker” and the “shoot blight incidence, result in words” value is recorded as “greatly reduced”.
For the molecule `[Cu+2].[OH-].[OH-]` [copper hydroxide], the “Shoot Incidence” value in experiment [2] (Day 63, rate 5 lbs/a (2.27 kg/a), mean of the counts) was 1.0. For the same molecule, in experiment [2], the “cankers, result in words” value is on record as “appeared to prevent canker” and the “shoot blight incidence, result in words” value is “greatly reduced”.
For `CCCCCCCCCCCCOS(=O)(=O)[O-].[Na+]`, in experiment [1] (setting [3]), the “change in turbidity T48 − T0” value stood at 610, the “turbidity T0” value was determined as 48 and the “turbidity T18” value is recorded as 495. In experiment [1] (setting [4]), the “change in turbidity T18 − T0” value was found to be 2, the “change in turbidity T48 − T0” value worked out at 0, the “change in turbidity T72 − T0” value is recorded as 0 and the “change in turbidity T96 − T0” value is on record as −1. In experiment [1] (setting [4]), the “turbidity T0” value was 88, the “turbidity T18” value was determined as 90, the “turbidity T48” value is reported as 88 and the “turbidity T72” value turned out to be 88. Besides, the “turbidity T96” value in experiment [1] (setting [4]) is listed as 87. Further, in experiment [1] (setting [5]), the “change in turbidity T18 − T0” value worked out at 13, the “change in turbidity T48 − T0” value is 2, the “change in turbidity T72 − T0” value is on record as 7 and the “change in turbidity T96 − T0” value was 1.
